Measured values reported in ChEMBL document CHEMBL5528012, “Discovery of novel deoxyvasicinone derivatives with benzenesulfonamide substituents as multifunctional agents against Alzheimer's disease” (Eur J Med Chem, 2024).

What was measured:
Cholinesterase = Cholinesterase (Equus caballus, UniProt P81908); experiment: Inhibition of equine serum BuChE using S-butyrylthiocholine iodide as substrate pre-incubated for 30 mins followed by substrate addition and measured after 5 mins by DTNB reagent based Ellman's method
Acetylcholinesterase [1] = biological target: Acetylcholinesterase (Electrophorus electricus, UniProt O42275); experiment: Inhibition of electric eel AChE using acetylthiocholine iodide as substrate pre-incubated for 30 mins followed by substrate addition and measured after 5 mins by DTNB reagent based Ellman's method
Acetylcholinesterase [2] = biological target: Acetylcholinesterase (Homo sapiens, UniProt P22303); experiment: Inhibition of AChE (unknown origin)
Sequence of Acetylcholinesterase (Homo sapiens, UniProt P22303) (P22303 whole entry): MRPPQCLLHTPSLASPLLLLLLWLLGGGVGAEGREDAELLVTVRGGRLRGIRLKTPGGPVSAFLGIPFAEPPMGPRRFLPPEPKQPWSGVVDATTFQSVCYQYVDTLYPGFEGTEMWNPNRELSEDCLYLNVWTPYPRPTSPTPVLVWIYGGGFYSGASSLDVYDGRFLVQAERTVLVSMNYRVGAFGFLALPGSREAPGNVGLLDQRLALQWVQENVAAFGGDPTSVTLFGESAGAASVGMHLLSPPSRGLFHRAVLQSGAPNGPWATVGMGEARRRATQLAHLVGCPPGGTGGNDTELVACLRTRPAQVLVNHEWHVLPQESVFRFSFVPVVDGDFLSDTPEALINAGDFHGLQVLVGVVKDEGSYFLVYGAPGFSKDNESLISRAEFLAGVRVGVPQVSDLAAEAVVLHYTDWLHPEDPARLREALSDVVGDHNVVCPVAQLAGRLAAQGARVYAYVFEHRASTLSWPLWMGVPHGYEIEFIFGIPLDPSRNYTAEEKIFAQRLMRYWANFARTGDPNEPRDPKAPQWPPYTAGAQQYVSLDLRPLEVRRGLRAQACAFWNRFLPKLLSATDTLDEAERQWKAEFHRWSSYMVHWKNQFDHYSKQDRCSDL

Sequence of Cholinesterase (P81908 whole entry): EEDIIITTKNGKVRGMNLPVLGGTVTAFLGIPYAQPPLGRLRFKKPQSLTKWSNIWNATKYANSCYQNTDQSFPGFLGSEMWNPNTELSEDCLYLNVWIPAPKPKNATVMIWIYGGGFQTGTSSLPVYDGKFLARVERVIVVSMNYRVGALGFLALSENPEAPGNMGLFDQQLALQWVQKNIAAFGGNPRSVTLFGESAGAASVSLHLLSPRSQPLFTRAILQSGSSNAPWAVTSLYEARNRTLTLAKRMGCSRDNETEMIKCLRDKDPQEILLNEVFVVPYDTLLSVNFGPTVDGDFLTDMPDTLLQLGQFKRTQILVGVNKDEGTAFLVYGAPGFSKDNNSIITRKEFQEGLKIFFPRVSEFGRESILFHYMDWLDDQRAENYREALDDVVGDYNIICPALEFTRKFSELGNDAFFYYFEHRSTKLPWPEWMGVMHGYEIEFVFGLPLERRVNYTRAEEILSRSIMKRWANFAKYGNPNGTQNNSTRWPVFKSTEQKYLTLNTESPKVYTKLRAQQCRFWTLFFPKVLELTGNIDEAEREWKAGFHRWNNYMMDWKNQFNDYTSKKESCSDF
Sequence of Acetylcholinesterase (Electrophorus electricus, UniProt O42275) (O42275 whole entry): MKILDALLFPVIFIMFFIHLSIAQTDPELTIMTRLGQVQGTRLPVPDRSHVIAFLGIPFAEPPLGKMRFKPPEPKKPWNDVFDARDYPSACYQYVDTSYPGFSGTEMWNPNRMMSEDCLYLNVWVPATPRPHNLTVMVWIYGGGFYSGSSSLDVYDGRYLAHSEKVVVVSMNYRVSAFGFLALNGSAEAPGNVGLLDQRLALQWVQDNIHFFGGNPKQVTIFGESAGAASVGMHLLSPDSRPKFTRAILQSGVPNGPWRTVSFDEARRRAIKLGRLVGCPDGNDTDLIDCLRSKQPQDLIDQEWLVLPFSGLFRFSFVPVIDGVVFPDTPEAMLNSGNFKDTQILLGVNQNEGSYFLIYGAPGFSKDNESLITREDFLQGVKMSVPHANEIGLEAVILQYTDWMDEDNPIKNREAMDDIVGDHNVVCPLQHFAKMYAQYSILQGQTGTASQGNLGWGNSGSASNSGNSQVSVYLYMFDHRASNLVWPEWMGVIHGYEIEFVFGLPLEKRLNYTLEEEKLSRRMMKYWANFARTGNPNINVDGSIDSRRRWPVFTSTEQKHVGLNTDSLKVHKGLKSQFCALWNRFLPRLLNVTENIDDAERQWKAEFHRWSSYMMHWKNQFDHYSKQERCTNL

Row | Structure (SMILES) | IC50 (Cholinesterase) | IC50 (Acetylcholinesterase [1]) | IC50 (Acetylcholinesterase [2])
1 | O=C(CNS(=O)(=O)c1cccc(C(F)(F)F)c1)Nc1ccc2c(=O)n3c(nc2c1)CCC3 | > 50 µM | 20.9 µM | –
2 | O=C(CNS(=O)(=O)c1ccccc1OC(F)(F)F)Nc1ccc2c(=O)n3c(nc2c1)CCC3 | > 50 µM | 0.78 µM | –
3 | CC(C)c1cc(C(C)C)c(S(=O)(=O)NCC(=O)Nc2ccc3c(=O)n4c(nc3c2)CCC4)c(C(C)C)c1 | > 50 µM | > 50 µM | –
4 | O=C(CNS(=O)(=O)c1cc(Br)cc(C(F)(F)F)c1)Nc1ccc2c(=O)n3c(nc2c1)CCC3 | > 50 µM | > 50 µM | –
5 | COc1ccc2[nH]c(C(=O)Nc3ccc4nc5n(c(=O)c4c3)CCC5)cc2c1 | – | – | 0.12 µM
6 | CC(C)c1ccc(S(=O)(=O)NCC(=O)Nc2ccc3c(=O)n4c(nc3c2)CCC4)cc1 | > 50 µM | 12.5 µM | –
7 | O=C(CNS(=O)(=O)c1ccc(OC(F)(F)F)cc1)Nc1ccc2c(=O)n3c(nc2c1)CCC3 | > 50 µM | > 50 µM | –
8 | O=C(CNS(=O)(=O)c1cccc(Cl)c1)Nc1ccc2c(=O)n3c(nc2c1)CCC3 | > 50 µM | 3.98 µM | –
9 | CC(C)(C)c1ccc(S(=O)(=O)NCC(=O)Nc2ccc3c(=O)n4c(nc3c2)CCC4)cc1 | > 50 µM | > 50 µM | –
10 | O=C(CNS(=O)(=O)c1cccc(F)c1)Nc1ccc2c(=O)n3c(nc2c1)CCC3 | > 50 µM | 4.43 µM | –
11 | O=C(CNS(=O)(=O)c1ccccc1Br)Nc1ccc2c(=O)n3c(nc2c1)CCC3 | > 50 µM | 4.17 µM | –
12 | O=C(CNS(=O)(=O)c1cc(Cl)cc(Cl)c1)Nc1ccc2c(=O)n3c(nc2c1)CCC3 | > 50 µM | > 50 µM | –
13 | O=C(CNS(=O)(=O)c1c(F)cccc1F)Nc1ccc2c(=O)n3c(nc2c1)CCC3 | > 50 µM | 5.12 µM | –
14 | O=C(CNS(=O)(=O)c1ccc(C(F)(F)F)cc1)Nc1ccc2c(=O)n3c(nc2c1)CCC3 | > 50 µM | 24.8 µM | –
15 | COc1ccc(S(=O)(=O)NCC(=O)Nc2ccc3c(=O)n4c(nc3c2)CCC4)cc1OC | > 50 µM | 10.4 µM | –
16 | O=C(CNS(=O)(=O)c1ccccc1Cl)Nc1ccc2c(=O)n3c(nc2c1)CCC3 | > 50 µM | 2.57 µM | –
17 | O=C(CNS(=O)(=O)c1ccccc1F)Nc1ccc2c(=O)n3c(nc2c1)CCC3 | > 50 µM | 5.25 µM | –
18 | O=C(CCCCN1CCN(Cc2ccccc2)CC1)Nc1ccc2nc3n(c(=O)c2c1)CCC3 | – | – | 0.00329 µM
